{"source": "paper PMC12037037", "about": "(Proceedings of the National Academy of Sciences of the …, 2025)", "key": {"[1]": {"target": "5-HT2A receptor membrane preparations obtained from PSYLI2 cells (Homo sapiens, UniProt P28223)", "sequence (P28223 1-263 limits assumed)": "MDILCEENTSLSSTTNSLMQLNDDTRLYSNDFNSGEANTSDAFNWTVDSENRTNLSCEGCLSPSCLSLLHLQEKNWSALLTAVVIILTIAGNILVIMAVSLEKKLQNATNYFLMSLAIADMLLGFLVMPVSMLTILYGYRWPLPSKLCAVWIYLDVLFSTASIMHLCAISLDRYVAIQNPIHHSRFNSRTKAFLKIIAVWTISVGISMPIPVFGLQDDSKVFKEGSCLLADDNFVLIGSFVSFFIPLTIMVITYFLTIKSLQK", "sequence (P28223 316-471 limits assumed)": "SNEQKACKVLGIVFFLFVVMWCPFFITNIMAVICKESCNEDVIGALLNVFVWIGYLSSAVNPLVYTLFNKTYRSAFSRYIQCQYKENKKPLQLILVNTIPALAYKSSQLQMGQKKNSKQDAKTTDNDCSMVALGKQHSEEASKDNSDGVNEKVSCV", "test": "Ligand binding kinetics with [3H]-LSD on PSYLI2 membrane preparations", "conditions": "kinetics of competition binding vs [3H]-LSD", "procedure": "Ligand binding kinetics at the 5-HT2AR.\nData represent the mean ± SEM of 2–3 biological replicates.\nData represent the mean ± SEM of 2–4 biological replicates.\nBinding buffer consisted of 50 mM Tris HCl, 10 mM MgCl2, 0.1 mM EDTA disodium dihydrate in autoclaved\ndeionized water. The solution was adjusted to pH 7.4 with 10 M NaOH(aq) and stored at 4 °C. This solution was used in\nmembrane preparation generation as well as competition and kinetics assays.\nfree, see 15) were grown in 15-cm plates with Dulbecco’s Modified Eagle Media (DMEM) containing 10% fetal bovine serum and 1% penicillin/streptomycin. When the cells were >90% confluent, the media was removed, and the cells were washed\nwith Dulbecco’s Phosphate Buffered Saline (DPBS) (15 mL). Next, DMEM (15 mL) lacking fetal bovine serum and\npenicillin/streptomycin was added, and the cells were serum-starved for 4–12 hours. Roughly 10 mL of the DMEM was\nremoved, leaving ~5 mL of media in the plates before placing them on ice. Once on ice, the plates were scraped and the\ncontents were transferred to a pre-chilled 50 mL Falcon tube and then centrifuged (2,000 g, 10 min, 4 °C). The supernatant […]\nof 0.25 mL to use for quantification of protein concentration via a Bradford assay with a Coomassie protein assay reagent. […]\nFor association binding experiments, total and nonspecific binding was determined by adding binding buffer (2.5X solution, […]"}, "C57BL/6J mice": {"system": "C57BL/6J mice", "test": "Sucrose preference test (SPT) after chronic CORT", "assay_type": "in vivo", "conditions": "after 20 d CORT 20 mg/kg IP; baseline 0.7980 ± 0.03533", "method": "remained housed in groups of three for the remainder of the study. All rats were acclimated to the colony room for up to one week prior to dosing. During the period of acclimation, rats were examined and handled daily, and weighed to assure adequate health and suitability. The room temperature was maintained between 20 °C and 23 °C with a relative humidity of 30%–70%. Lab Rodent Diet 5001 (W.F. Fisher, Cat # 11015) and water were provided ad libitum. Animals were randomly assigned across treatment groups. All testing was performed during the light phase of the light/dark cycle. Behavioral testing was conducted according to established protocols approved by the IACUC committee and PGI Standard Operation Procedures (SOP). […] All animals were carefully monitored to ensure their safety in the swim test and any animal unable to maintain a posture with its nose above water was immediately removed from the water and not used further in the study. […] This test lasted for 5 min and was video recorded. A blinded experimenter manually scored the videos for swimming, climbing, and immobility behavior. Scoring of the forced swim test was performed by trained technicians using a time sampling technique in which the animal in the video recorded test was viewed every 5 seconds and the behavior observed was noted (e.g., immobile, swimming, or climbing). […]"}, "[2]": {"system": "Thy1-EGFP mice, layer 2/3 of the mPFC", "test": "In vivo spinogenesis after chronic corticosterone administration", "conditions": "chronic CORT (20 mg/kg IP daily, 20 d) + VEH; GH VEH 12.17 ± 0.5278; mean ± SEM", "procedure": "In Vivo Spinogenesis after chronic corticosterone administration. Male and female Thy1-EGFP mice were given 1 week to acclimate to the new vivarium, then transferred to new cages (individually housed). Once individually housed, the mice were administered corticosterone (20 mg/kg; IP) in DMSO (2 mL/kg) or gently handled daily for 20 days. On day 21, mice were treated with VEH (saline) or (+)-JRT (1 mg/kg; IP). After 24 h, mice were anesthetized with isoflurane and transcardially perfused with paraformaldehyde (PFA, 4% in PBS, 7.4 pH). After extraction of the brains, samples were fixed in 4% PFA at 4° C overnight. The brains were cryo-protected by immersion in a 15% sucrose solution (15% sucrose in PBS w/v) overnight. Next, samples were placed in 30% sucrose solution (30% sucrose in PBS w/v) for at least 1 day. Samples were then embedded in optimal cutting temperature compound (OCT), sliced into 100 µm coronal sections using a cryostat, and mounted on slides which were left in the dark overnight to dry. Coverslips were mounted onto microscope slides using ProLong Gold. Slides were imaged on a Nikon HCA Spinning Disc confocal microscope equipped with a 100x/NA 1.45 oil objective. Images of dendrites and dendritic spines within layer 2/3 of the mPFC were captured and manually counted by a trained experimenter blinded to treatment conditions."}, "[3]": {"target": "D1 (h) (antagonist radioligand)", "set-up": "method as in ref Mefloquine and psychotomimetics share neurotransmitter receptor and transporter interactions in vitro", "conditions": "read-out: Ki of LSD; radioligand SCH 23390; Human cloned; ref Mefloquine and psychotomimetics share neurotransmitter receptor and transporter interactions in vitro; cited from earlier work"}, "[4]": {"target": "5-HT2B (h) (agonist radioligand)", "conditions": "read-out: Ki of LSD; radioligand 5-HT; Human cloned; ref Pharmacological characterisation of the agonist radioligand binding site of 5-HT(2A), 5-HT(2B) and 5-HT(2C) receptors; cited from earlier work"}, "[5]": {"target": "alpha 2 (non-selective) (antagonist radioligand)", "set-up": "method as in ref Receptor interaction profiles of novel N-2-methoxybenzyl (NBOMe) derivatives of 2,5-dimethoxy-substituted phenethylamines (2C drugs)", "conditions": "read-out: Ki of LSD; radioligand Rauwolscine; Human cloned; ref Receptor interaction profiles of novel N-2-methoxybenzyl (NBOMe) derivatives of 2,5-dimethoxy-substituted phenethylamines (2C drugs); cited from earlier work"}, "[6]": {"target": "alpha 1 (non-selective) (antagonist radioligand)", "set-up": "method as in ref Receptor interaction profiles of novel N-2-methoxybenzyl (NBOMe) derivatives of 2,5-dimethoxy-substituted phenethylamines (2C drugs)", "conditions": "read-out: Ki of LSD; radioligand prazosin; Human cloned; ref Receptor interaction profiles of novel N-2-methoxybenzyl (NBOMe) derivatives of 2,5-dimethoxy-substituted phenethylamines (2C drugs); cited from earlier work"}, "[7]": {"target": "D2S (h) (antagonist radioligand)", "set-up": "method as in ref Mefloquine and psychotomimetics share neurotransmitter receptor and transporter interactions in vitro", "conditions": "read-out: Ki of LSD; radioligand [3H]YM-09151-2; Human cloned; ref Mefloquine and psychotomimetics share neurotransmitter receptor and transporter interactions in vitro; cited from earlier work"}, "[8]": {"target": "5-HT7 (h) (agonist radioligand)", "set-up": "method as in Molecular biology of 5-HT receptors", "conditions": "read-out: Ki of LSD; radioligand 5-HT; Rat cloned; ref Molecular biology of 5-HT receptors; cited from earlier work"}, "[9]": {"system": "E18 rat embryonic cortical neurons (DIV18-19)", "test": "Spinogenesis assay using cultured rat cortical neurons", "assay_type": "cell-based", "conditions": "compound 1 μM"}, "[10]": {"target": "beta 1 (h) (agonist radioligand)", "conditions": "read-out: Ki of LSD; radioligand 125I-pindolol; Rat cloned; ref Lysergamides of isomeric 2,4-dimethylazetidines map the binding orientation of the diethylamide moiety in the potent hallucinogenic agent N,N-diethyllysergamide (LSD); cited from earlier work"}, "[11]": {"target": "5-HT1B (h) (antagonist radioligand)", "set-up": "method as in ref Pharmacological Differentiation and Characterization of 5-HT1A, 5-HT1B, and 5-HT1C Binding Sites in Rat Frontal Cortex", "conditions": "read-out: Ki of LSD; radioligand 5-HT; Rat cortex; ref Pharmacological Differentiation and Characterization of 5-HT1A, 5-HT1B, and 5-HT1C Binding Sites in Rat Frontal Cortex; cited from earlier work"}, "[12]": {"target": "5-HT5a (h) (agonist radioligand)", "conditions": "read-out: Ki of LSD, Rat cloned, ref Lysergamides of isomeric 2,4-dimethylazetidines map the binding orientation of the diethylamide moiety in the potent hallucinogenic agent N,N-diethyllysergamide (LSD); cited from earlier work"}}, "note": "pKi: −log10 of the molar value."}
{"compound": "CCN(CC)CCc1c[nH]c2cc(F)ccc12", "note": "[6-F-DET, 6-fluoro-N,N-diethyltryptamine, reference compound]", "values": [{"measurement": "Dissociation rate from the 5-HT2A receptor, fold faster than LSD", "setting": "[1]", "value": "~100", "unit": "fold"}]}
{"compound": "C[C@]12C[C@H](O)[C@H]3[C@@H](CCC4=CC(=O)CC[C@@]43C)[C@@H]1CC[C@@H]2C(=O)CO", "note": "[CORT, corticosterone, reference compound]", "values": [{"measurement": "Sucrose preference post-CORT (Figure 6D)", "setting": "C57BL/6J mice", "value": "0.5563 ± 0.08424"}, {"measurement": "Dendritic spine density, layer 2/3 mPFC (Table S1, matches Fig. 4N)", "setting": "[2]", "value": "8.570 ± 0.4350"}]}
{"compound": "CCN(CC)C(=O)[C@@H]1C=C2c3cccc4[nH]cc(c34)C[C@H]2N(C)C1", "note": "[LSD, lysergic acid diethylamide]", "values": [{"measurement": "pKi", "setting": "[3]", "value": 6.56}, {"measurement": "pKi", "setting": "[4]", "value": 9.01}, {"measurement": "pKi", "setting": "[5]", "value": 7.92}, {"measurement": "pKi", "setting": "[6]", "value": 6.17}, {"measurement": "pKi", "setting": "[7]", "value": 7.42}, {"measurement": "pKi", "setting": "[8]", "value": 6.70}, {"measurement": "Effect of ketanserin (10 μM) pretreatment on compound-induced dendritic spine density", "setting": "[9]", "value": "blocks"}, {"measurement": "pKi", "setting": "[10]", "value": 6.85}, {"measurement": "pKi", "setting": "[11]", "value": 6.77}, {"measurement": "pKi", "setting": "[12]", "value": 8.05}]}
